± gives the expanded uncertainty stated by the source.
What was measured:
[1] = 298.15 K; 101.33 kPa; Liquid; Vibrating tube method
[2] = refractive index (Na D-line) (dimensionless); details: 101.33 kPa, Liquid, Standard Abbe refractometry

Row | SMILES | mass density [1] | refractive index ([2]; 298.2 K) | refractive index ([2]; 298.15 K)
1 | CCCC(=O)O [butanoic acid] | 952.7 ± 0.2 kg/m3 | 1.3976 ± 0.0008 | –
2 | CCCCCCO [hexan-1-ol] | 815.2 ± 0.6 kg/m3 | – | 1.4155 ± 0.0009
3 | CCCCCC [hexane] | 654.6 ± 0.3 kg/m3 | – | 1.3751 ± 0.0008
4 | O [water] | – | – | 1.3325 ± 0.0008
